Laboratory results published in PubChem BioAssay (NCI).
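1) Cells in 96-well plates. 2) Compound, 48 h, 5 concentrations. 3) Linear interpolation between surrounding doses. 4) Unreached endpoint = highest concentration. At the TGI there is no net growth.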

Key:
Assay in all cases: NCI tumour cell line growth inhibition, 48 h
HT29 colon = system: HT29 colon
NCI-H23 lung = system: NCI-H23 lung
RXF 393 renal = system: RXF 393 renal
NCI-H460 lung = system: NCI-H460 lung
OVCAR-4 ovarian = system: OVCAR-4 ovarian
K-562 leukemia = system: K-562 leukemia
ACHN renal = system: ACHN renal
OVCAR-8 ovarian = system: OVCAR-8 ovarian
CAKI-1 renal = system: CAKI-1 renal
UACC-62 melanoma = system: UACC-62 melanoma
HCT-15 colon = system: HCT-15 colon
A498 renal = system: A498 renal
IGROV1 ovarian = system: IGROV1 ovarian
KM20L2 colon = system: KM20L2 colon
RPMI-8226 leukemia = system: RPMI-8226 leukemia
U251 CNS = system: U251 CNS
HCC-2998 colon = system: HCC-2998 colon
NCI-H522 lung = system: NCI-H522 lung
SF-539 CNS = system: SF-539 CNS
NCI-H226 lung = system: NCI-H226 lung
MOLT-4 leukemia = system: MOLT-4 leukemia
SK-MEL-28 melanoma = system: SK-MEL-28 melanoma
UO-31 renal = system: UO-31 renal
LOX IMVI melanoma = system: LOX IMVI melanoma
HCT-116 colon = system: HCT-116 colon
SN12C renal = system: SN12C renal
M14 melanoma = system: M14 melanoma
786-0 renal = system: 786-0 renal
SF-295 CNS = system: SF-295 CNS
SNB-19 CNS = system: SNB-19 CNS
SR leukemia = system: SR leukemia
SF-268 CNS = system: SF-268 CNS
EKVX NSCLC = system: EKVX NSCLC
HOP-92 NSCLC = system: HOP-92 NSCLC
SK-MEL-2 melanoma = system: SK-MEL-2 melanoma
MALME-3M melanoma = system: MALME-3M melanoma
SNB-78 CNS = system: SNB-78 CNS
HL-60(TB) leukemia = system: HL-60(TB) leukemia
HOP-18 NSCLC = system: HOP-18 NSCLC
DLD-1 colon = system: DLD-1 colon
HOP-62 NSCLC = system: HOP-62 NSCLC
SW-620 colon = system: SW-620 colon
SNB-75 CNS = system: SNB-75 CNS
A549 NSCLC = system: A549 NSCLC
M19-MEL melanoma = system: M19-MEL melanoma
TK-10 renal = system: TK-10 renal
DMS 273 small cell lung = system: DMS 273 small cell lung
UACC-257 melanoma = system: UACC-257 melanoma
SK-MEL-5 melanoma = system: SK-MEL-5 melanoma
LXFL 529 NSCLC = system: LXFL 529 NSCLC
CCRF-CEM leukemia = system: CCRF-CEM leukemia
KM12 colon = system: KM12 colon
OVCAR-5 ovarian = system: OVCAR-5 ovarian
SK-OV-3 ovarian = system: SK-OV-3 ovarian
COLO 205 colon = system: COLO 205 colon
OVCAR-3 ovarian = system: OVCAR-3 ovarian
HS 578T breast = system: HS 578T breast
DU-145 prostate = system: DU-145 prostate
NCI/ADR-RES ovarian = system: NCI/ADR-RES ovarian
PC-3 prostate = system: PC-3 prostate
MDA-N = system: MDA-N
BT-549 breast = system: BT-549 breast
MDA-MB-435 = system: MDA-MB-435
T-47D breast = system: T-47D breast
MDA-MB-231 breast = system: MDA-MB-231 breast
MCF7 breast = system: MCF7 breast

O=C(/C=C/c1ccccc1Cl)c1ccc(Cl)c(Cl)c1
TGI (HT29 colon): 36 µM | TGI (NCI-H23 lung): 36.4 µM | TGI (RXF 393 renal): 26 µM | TGI (NCI-H460 lung): > 100 µM | TGI (OVCAR-4 ovarian): 25.5 µM | TGI (K-562 leukemia): 67.9 µM | TGI (ACHN renal): 28.6 µM | TGI (OVCAR-8 ovarian): 33 µM | TGI (CAKI-1 renal): 30.9 µM | TGI (UACC-62 melanoma): 45.6 µM | TGI (HCT-15 colon): 32.2 µM | TGI (A498 renal): 33.9 µM | TGI (IGROV1 ovarian): 25 µM | TGI (KM20L2 colon): 31.1 µM | TGI (RPMI-8226 leukemia): > 100 µM | TGI (U251 CNS): 31.1 µM | TGI (HCC-2998 colon): 28.8 µM | TGI (NCI-H522 lung): 31.1 µM | TGI (SF-539 CNS): 33.1 µM | TGI (NCI-H226 lung): > 100 µM | TGI (MOLT-4 leukemia): 61.4 µM | TGI (SK-MEL-28 melanoma): 40.4 µM | TGI (UO-31 renal): 30.9 µM | TGI (LOX IMVI melanoma): 28 µM | TGI (HCT-116 colon): 23.6 µM | TGI (SN12C renal): > 100 µM | TGI (M14 melanoma): 33.4 µM | TGI (786-0 renal): 29.8 µM | TGI (SF-295 CNS): 31.3 µM | TGI (SNB-19 CNS): 29.9 µM | TGI (SR leukemia): 54.8 µM | TGI (SF-268 CNS): 33.7 µM | TGI (EKVX NSCLC): 37.4 µM | TGI (HOP-92 NSCLC): 58.1 µM | TGI (SK-MEL-2 melanoma): 36.9 µM | TGI (MALME-3M melanoma): 55.7 µM | TGI (SNB-78 CNS): 32.7 µM | TGI (HL-60(TB) leukemia): 60.7 µM | TGI (HOP-18 NSCLC): 32 µM | TGI (DLD-1 colon): 30.1 µM | TGI (HOP-62 NSCLC): 57.6 µM | TGI (SW-620 colon): 28.3 µM | TGI (SNB-75 CNS): 27.3 µM | TGI (A549 NSCLC): 40.8 µM | TGI (M19-MEL melanoma): 29.8 µM | TGI (TK-10 renal): 38.8 µM | TGI (DMS 273 small cell lung): 37.5 µM | TGI (UACC-257 melanoma): 40.2 µM | TGI (SK-MEL-5 melanoma): 36.1 µM | TGI (LXFL 529 NSCLC): 29.6 µM | TGI (CCRF-CEM leukemia): 81.8 µM | TGI (KM12 colon): 29.7 µM | TGI (OVCAR-5 ovarian): 32.8 µM | TGI (SK-OV-3 ovarian): 51.3 µM | TGI (COLO 205 colon): > 100 µM | TGI (OVCAR-3 ovarian): 28.7 µM

CC1=C(C(=O)OCCO[N+](=O)[O-])C(c2cccc([N+](=O)[O-])c2)C(C(=O)OC(C)C)=C(C)N1 (centres undefined)
TGI (HT29 colon): 29.2 µM | TGI (HS 578T breast): 33.2 µM | TGI (DU-145 prostate): 65.9 µM | TGI (NCI-H23 lung): 45.7 µM | TGI (RXF 393 renal): 31.5 µM | TGI (NCI-H460 lung): 34.4 µM | TGI (OVCAR-4 ovarian): 37.7 µM | TGI (K-562 leukemia): > 100 µM | TGI (ACHN renal): > 100 µM | TGI (OVCAR-8 ovarian): 54.2 µM | TGI (CAKI-1 renal): 95.7 µM | TGI (NCI/ADR-RES ovarian): 34.3 µM | TGI (UACC-62 melanoma): 30.2 µM | TGI (HCT-15 colon): 27.4 µM | TGI (A498 renal): 46.8 µM | TGI (IGROV1 ovarian): 33.9 µM | TGI (RPMI-8226 leukemia): > 100 µM | TGI (U251 CNS): 28.7 µM | TGI (HCC-2998 colon): 29.6 µM | TGI (NCI-H522 lung): 34.9 µM | TGI (SF-539 CNS): 30.5 µM | TGI (PC-3 prostate): 15.6 µM | TGI (NCI-H226 lung): 28.2 µM | TGI (MOLT-4 leukemia): > 100 µM | TGI (SK-MEL-28 melanoma): 28.1 µM | TGI (MDA-N): 28.1 µM | TGI (UO-31 renal): 28.1 µM | TGI (LOX IMVI melanoma): 31.6 µM | TGI (HCT-116 colon): 22.2 µM | TGI (SN12C renal): 36.4 µM | TGI (M14 melanoma): 29.5 µM | TGI (786-0 renal): 35.7 µM | TGI (SF-295 CNS): 56.6 µM | TGI (SNB-19 CNS): 75.4 µM | TGI (SR leukemia): > 100 µM | TGI (SF-268 CNS): 33 µM | TGI (EKVX NSCLC): 48.9 µM | TGI (HOP-92 NSCLC): 25.5 µM | TGI (SK-MEL-2 melanoma): 28 µM | TGI (MALME-3M melanoma): 51.9 µM | TGI (BT-549 breast): 27.1 µM | TGI (HL-60(TB) leukemia): > 100 µM | TGI (MDA-MB-435): 30.9 µM | TGI (HOP-62 NSCLC): 30.9 µM | TGI (SW-620 colon): 51.1 µM | TGI (T-47D breast): 53.6 µM | TGI (MDA-MB-231 breast): 26.1 µM | TGI (MCF7 breast): 86.3 µM | TGI (A549 NSCLC): 37.4 µM | TGI (TK-10 renal): 42.9 µM | TGI (UACC-257 melanoma): 25.2 µM | TGI (SK-MEL-5 melanoma): 26.1 µM | TGI (CCRF-CEM leukemia): > 100 µM | TGI (KM12 colon): 23.1 µM | TGI (OVCAR-5 ovarian): 30.4 µM | TGI (SK-OV-3 ovarian): 36.9 µM | TGI (COLO 205 colon): 24.4 µM | TGI (OVCAR-3 ovarian): 23.6 µM
